Where two headings read alike, the source gives them in different places.
Assays:
ROCK-II = target: T1, ROCK-II (Homo sapiens, UniProt O75116); experiment: ROCK-II inhibition assay (ADP-Glo Kinase Assay, ROCK2 Kinase assay); type: biochemical; conditions: for inhibition at 0.01 µg/mL / inhibition at 0.1 µg/mL / inhibition at 1 µg/mL / inhibition at 10 µg/mL: read-out: % of inhibition of ROCK-II ± SD
T1 construct: purchased Promega, USA
Procedure: A vehicle control for 5% DMSO was used in the assay to check the interference. Standard curve for ROCK-II enzyme was done (Figure 2). Serial dilution and IC50 of the AE was performed in triplicate.
The assay was repeated as mentioned in Section 2.3 on the AE fractions and the isolates T1-T8.
The assay performance measure was used to validate the screening assay quality through calculation of Z-factor according to methodology of Zhang et al., 1999 [18].
Enzyme inhibition by tested samples is expressed as mean ± SD and analyzed using Prism program version 6 (GraphPad Software, Inc., San Diego CA); comparisons among tested samples were carried out using one-way analysis of variance (ANOVA) followed by Bonferroni's multiple comparisons test. P ‹ 0.05 was considered significant.

phosphodiesterase = system: phosphodiesterase; design: method as in PMID 23810842; conditions: high concentration; cited from earlier work
testosterone production = system: testosterone production; design: method as in PMID 26978330; conditions: cited from earlier work
aromatase enzyme = system: aromatase enzyme; design: method as in PMID 23810842; conditions: Leydig cells, transformation of testosterone to estrogen; cited from earlier work
[1] = mean ± SD, triplicates, read-out: IC50 (converted)

T1 sequence (O75116 whole entry): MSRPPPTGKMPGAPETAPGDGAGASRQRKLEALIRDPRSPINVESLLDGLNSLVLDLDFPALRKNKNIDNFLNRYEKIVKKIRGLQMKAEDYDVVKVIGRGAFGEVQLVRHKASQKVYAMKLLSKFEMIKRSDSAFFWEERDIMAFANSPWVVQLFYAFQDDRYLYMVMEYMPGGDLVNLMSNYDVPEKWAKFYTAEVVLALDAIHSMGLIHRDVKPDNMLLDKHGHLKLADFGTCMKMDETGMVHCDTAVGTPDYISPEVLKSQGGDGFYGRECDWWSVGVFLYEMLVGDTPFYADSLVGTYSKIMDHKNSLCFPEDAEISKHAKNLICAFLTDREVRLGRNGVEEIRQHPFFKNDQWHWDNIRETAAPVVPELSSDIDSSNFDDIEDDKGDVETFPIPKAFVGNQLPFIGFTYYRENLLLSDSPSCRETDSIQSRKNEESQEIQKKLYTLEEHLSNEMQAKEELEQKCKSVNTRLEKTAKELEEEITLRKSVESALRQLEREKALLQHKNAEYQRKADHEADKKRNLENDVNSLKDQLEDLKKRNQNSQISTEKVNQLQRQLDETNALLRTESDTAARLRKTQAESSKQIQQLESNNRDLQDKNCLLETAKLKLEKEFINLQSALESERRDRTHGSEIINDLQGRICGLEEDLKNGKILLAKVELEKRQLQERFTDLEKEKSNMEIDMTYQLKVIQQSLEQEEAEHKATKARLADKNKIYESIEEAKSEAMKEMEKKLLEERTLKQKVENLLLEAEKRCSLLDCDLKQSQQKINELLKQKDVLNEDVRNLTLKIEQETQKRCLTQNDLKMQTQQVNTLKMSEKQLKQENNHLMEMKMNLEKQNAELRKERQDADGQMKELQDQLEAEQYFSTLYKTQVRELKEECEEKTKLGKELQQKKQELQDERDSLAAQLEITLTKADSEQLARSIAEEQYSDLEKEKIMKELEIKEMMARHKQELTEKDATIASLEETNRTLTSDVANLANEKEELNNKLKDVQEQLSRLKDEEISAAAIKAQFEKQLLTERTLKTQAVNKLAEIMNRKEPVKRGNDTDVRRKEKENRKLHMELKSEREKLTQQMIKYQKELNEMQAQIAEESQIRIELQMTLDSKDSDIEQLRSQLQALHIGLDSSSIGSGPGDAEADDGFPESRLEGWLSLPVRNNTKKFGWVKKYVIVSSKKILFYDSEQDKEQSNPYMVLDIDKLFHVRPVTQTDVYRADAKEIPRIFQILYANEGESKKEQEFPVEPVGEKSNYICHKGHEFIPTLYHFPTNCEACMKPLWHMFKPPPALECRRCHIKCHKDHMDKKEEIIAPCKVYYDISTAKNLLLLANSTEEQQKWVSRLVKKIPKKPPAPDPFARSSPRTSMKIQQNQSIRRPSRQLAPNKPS

`COc1cc2ccc(=O)oc2cc1O` [Compound T3, scopoletin] showed an inhibition at 0.01 µg/mL (ROCK-II; concentration 0.01 µg/ml) of 10.1 ± 3.34%, an inhibition at 0.1 µg/mL (ROCK-II; concentration 0.1 µg/ml) of 25 ± 2.47% and an inhibition at 1 µg/mL (ROCK-II; concentration 1 µg/ml) of 66.15 ± 0.07%. The inhibition at 10 µg/mL (ROCK-II; concentration 10 µg/ml) was 77.1 ± 0.11% and the IC50 (ROCK-II; [1]) was 2730 nM.

`COc1cc(/C=C/C=O)ccc1O` [Compound T2, trans-coniferyl aldehyde] showed an inhibition at 0.01 µg/mL (ROCK-II; concentration 0.01 µg/ml) of 10.6 ± 2.94%, an inhibition at 0.1 µg/mL (ROCK-II; concentration 0.1 µg/ml) of 33.2 ± 1.55% and an inhibition at 1 µg/mL (ROCK-II; concentration 1 µg/ml) of 68.5 ± 0.35%. For the same molecule, the inhibition at 10 µg/mL (ROCK-II; concentration 10 µg/ml) was 82.1 ± 0.63% and the IC50 (ROCK-II; [1]) was 2010 nM.

In the case of `C[C@@H](N)[C@H]1CC[C@H](C(=O)Nc2ccncc2)CC1.Cl.Cl` (relative stereo) [Compound Y-27632, (+)-(R)-trans-4-(1-aminoethyl)-N-(4-pyridyl)cyclohexanecarboxamide dihydrochloride, reference compound], the “% of inhibition of ROCK-II ± SD” value (ROCK-II; concentration 0.01 µg/ml) is reported as 22.5 ± 1.27∗ %, the “% of inhibition of ROCK-II ± SD” value (ROCK-II; concentration 0.1 µg/ml) is reported as 42.15 ± 2.19∗ % and the “% of inhibition of ROCK-II ± SD” value (ROCK-II; concentration 1 µg/ml) is reported as 68.15 ± 2.75∗ %. For the same molecule, the “% of inhibition of ROCK-II ± SD” value (ROCK-II; concentration 10 µg/ml) was 89.9± 0.42∗ % and the “inhibition for ROCK-II activity” value (ROCK-II; concentrations 1-10 μg/ml) was 68.15-89.9%.

In the case of eurycomanone [Compound T6], the effect on phosphodiesterase (phosphodiesterase) is listed as “inhibitory effect”, the “% of inhibition of ROCK-II ± SD” value (ROCK-II; concentration 0.01 µg/ml) is listed as 5.4 ± 3.74% and the “% of inhibition of ROCK-II ± SD” value (ROCK-II; concentration 0.1 µg/ml) is listed as 26.4 ± 2.61∗ %. For the same molecule, the “% of inhibition of ROCK-II ± SD” value (ROCK-II; concentration 1 µg/ml) was 57.1 ± 0.56∗ %, the “% of inhibition of ROCK-II ± SD” value (ROCK-II; concentration 10 µg/ml) was 78.3 ± 0.38∗ % and the IC50 (ROCK-II; mean ± SD, triplicates) was 677 ± 51.1∗ ng/ml. The testosterone production (testosterone production) was “induce testosterone production” and the aromatase enzyme inhibition (aromatase enzyme) was “aromatase enzyme inhibition”.

Work on `CC[C@H](/C=C/[C@@H](C)[C@H]1CC[C@H]2[C@@H]3CC=C4C[C@@H](O)CC[C@]4(C)[C@H]3CC[C@]12C)C(C)C` [Compound T1, stigmasterol] yielded an IC50 (ROCK-II; [1]) of 14900 nM, an inhibition at 0.01 µg/mL (ROCK-II) of 2.78 ± 1.84% and an inhibition at 0.1 µg/mL (ROCK-II) of 13.3 ± 2.26%. The inhibition at 1 µg/mL (ROCK-II) was 27.4 ± 2.47% and the inhibition at 10 µg/mL (ROCK-II) was 60.3 ± 0.14%.

Work on `CC1=CC(=O)[C@@H](O)[C@@]2(C)[C@H]1CC(=O)[C@@]1(C)[C@H]3C(=O)O[C@H]([C@@H]3C)[C@H](O)[C@@H]12` [Compound T4, eurycomalactone] yielded an IC50 (ROCK-II) of 2280 nM, an inhibition at 0.01 µg/mL (ROCK-II) of 6.13 ± 0.44% and an inhibition at 0.1 µg/mL (ROCK-II) of 25.7 ± 2.47%. It also gave an inhibition at 1 µg/mL (ROCK-II) of 54 ± 0.42% and an inhibition at 10 µg/mL (ROCK-II) of 76.2 ± 3.53%.

For `C=C1C(O)C2(O)OCC34C(CC5C(C)=CC(OC6OC(CO)C(O)C(O)C6O)C(O)C5(C)C23)OC(=O)C(O)C14O` [Compound T8, eurycomanol-2-O-β-D-glycopyranoside], the IC50 (ROCK-II) was 2520 nM, the inhibition at 0.01 µg/mL (ROCK-II) was 4.06 ± 3.8% and the inhibition at 0.1 µg/mL (ROCK-II) was 17 ± 0.77%. The inhibition at 1 µg/mL (ROCK-II) was 46.5 ± 1.62% and the inhibition at 10 µg/mL (ROCK-II) was 71.4 ± 2.54%.

Source: publication PMC6541974, “Rho-Kinase II Inhibitory Potential of Eurycoma longifolia New Isolate for the Management of Erectile Dysfunction” (Evidence-based Complementary and Alternative Medicine : eCAM, 2019)
